Tests used:
Assay type in all cases: in vivo
Echinocloa crus-galli [1] = assay: Herbicidal post-emergence action; details: post-emergence method, 80 g/ha
Experimental: (§1) Seeds of monocotylidonous and dicotylidonous weed and crop plants are placed in sandy loam in wood fibre pots, covered with soil and cultivated in a greenhouse under good growth conditions. Two to three weeks after sowing, the test plants are treated at the one-leaf stage. The test compounds, formulated as wettable powders (WP), are then with a water application rate of 600 l/ha (converted), with 0.2% of wetting agent added, sprayed onto the green parts of the plants in different amounts. After the test plants have been kept in the greenhouse under optimum growth conditions for about three weeks, the effect of the preparations is assessed visually in comparison to untreated controls (herbicidal effect in percent: 100% effect=the plants have died, 0% effect=like control plants).

Lolium multiflorum [2] = assay: Herbicidal post-emergence action; details: post-emergence method, 80 g/ha
Experimental: as §1

Setaria viridis [3] = assay: Herbicidal post-emergence action; details: post-emergence method, 80 g/ha
Experimental: as §1

Alopecurus myosuroides [4] = assay: Herbicidal post-emergence action; details: post-emergence method, 80 g/ha
Experimental: as §1

Echinocloa crus-galli [5] = assay: Herbicidal pre-emergence action; details: pre-emergence method, 80 g/ha, greenhouse, visual assessment vs untreated controls
Text: (§2) Seeds of monocotylidonous and dicotylidonous weed and crop plants are placed in sandy loam in wood fibre pots and covered with soil. The test compounds, formulated in the form of wettable powders (WP), are then, as an aqueous suspension with a water application rate of 600 l/ha (converted), with 0.2% of wetting agent added, applied to the surface of the covering soil in different amounts.
(§3) After the treatment, the pots are placed in a greenhouse and kept under good growth conditions for the test plants. The visual assessment of the emergence damage on the test plants is carried out after a trial period of three weeks by comparison with the untreated controls (herbicidal effect in percent: 100% effect=the plants have died, 0% effect=like control plants).

Lolium multiflorum [6] = assay: Herbicidal pre-emergence action; details: pre-emergence method, 80 g/ha, greenhouse, visual assessment vs untreated controls
Text: as §2, §3

Setaria viridis [7] = assay: Herbicidal pre-emergence action; details: pre-emergence method, 80 g/ha, greenhouse, visual assessment vs untreated controls
Text: as §2, §3

Alopecurus myosuroides [8] = assay: Herbicidal pre-emergence action; details: pre-emergence method, 80 g/ha, greenhouse, visual assessment vs untreated controls
Text: as §2, §3

[9] = test system: monocotylidonous and dicotylidonous weed and crop plants; assay: Herbicidal post-emergence action (other test plants); details: post-emergence method, 80 g/ha
Experimental: as §1

| Compound | herbicidal effect against ECHCG (Echinochloa crus-galli) (Echinocloa crus-galli [1]) | herbicidal effect against LOLMU (Lolium multiflorum) (Lolium multiflorum [2]) | herbicidal effect against SETVI (Setaria viridis) (Setaria viridis [3]) | herbicidal effect against ALOMY (Alopecurus myosuroides) (Alopecurus myosuroides [4]) | herbicidal effect ECHCG (Echinocloa crus-galli [5]) | herbicidal effect LOLMU (Lolium multiflorum [6]) | herbicidal effect SETVI (Setaria viridis [7]) | herbicidal effect ALOMY (Alopecurus myosuroides [8]) | herbicidal effect against AVEFA (Avena fatua) [9] |
| --- | --- | --- | --- | --- | --- | --- | --- | --- | --- |
| CCc1cc(C)cc(CC)c1C1=C(OC(=O)C(C)(C)C)C2CC3(CC2C1=O)OCCS3 (mixture of isomers) [I-b-19] | 100% | 40% | 80% | 20% | 100% | 100% | 90% | 100% | 30% |
| CCc1cc(C)cc(CC)c1C1=C(OC(=O)C(C)(C)C)C2CC3(COC(C)(C)O3)CC2C1=O (centres unmarked) [I-b-5] | 80% | 100% | 0% | 90% | 10% | 100% | 60% | 90% | 20% |
| CCc1cc(C)cc(CC)c1C1=C(O)[C@H]2CC3(C[C@H]2C1=O)SCCS3 (relative stereo) [I-a-16] | 90% | 80% | 80% | 30% | – | – | – | – | 30% |
| Cc1cc(C)c(C2=C(O)[C@H]3CC4(C[C@H]3C2=O)OCCCO4)c(C)c1 (relative stereo) [I-a-37] | 100% | 100% | 60% | 60% | – | – | – | – | 90% |
| COC(=O)OC1=C(c2c(C)cc(C)cc2C)C(=O)C2CC3(CC12)OCCCCO3 (racemic) [I-c-49] | 90% | 100% | 80% | 100% | – | – | – | – | 80% |
| COc1cc(C)cc(C)c1C1=C(OC(=O)C(C)C)C2CC3(CC2C1=O)OCC=CCO3 (centres unmarked) [I-b-63] | 100% | 100% | 100% | 100% | 100% | 100% | 70% | 70% | 100% |
| CCc1cc(C)cc(C)c1C1=C(O)C2CC(=O)CC2C1=O (centres unmarked) [I-a-56] | 100% | 0% | 100% | 0% | – | – | – | – | 0% |
| CCc1cc(C)cc(CC)c1C1=C(O)[C@H]2CC(=NOC(C)C)C[C@H]2C1=O (relative stereo) [I-a-29] | 100% | 100% | 80% | 100% | 70% | 80% | 20% | 90% | 60% |
| Cc1cc(C)c(C2=C(OC(=O)CC(C)C)C3CC4(COC(C)(C)O4)CC3C2=O)c(C)c1 (mixture of isomers) [I-b-44] | 80% | 100% | 60% | 80% | – | – | – | – | 80% |
| COCC(=O)OC1=C(c2c(C)cc(C)cc2C)C(=O)C2CC3(COC(C)(C)O3)CC12 (mixture of isomers) [I-b-47] | 100% | 90% | 0% | 90% | – | – | – | – | 80% |
| CON=C1CC2C(=O)C(c3c(C)cc(C)cc3C)=C(O)C2C1 (centres unmarked) [I-a-44] | 100% | 20% | 80% | 20% | – | – | – | – | 0% |
